Experimental data from the supplement of paper PMC7600603.

What was measured:
DLD1 NRF2-GOF [1] = details: 72 h; CellTiter-Glo viability
Procedure, shortened: (§1)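 DLD1 colorectal cancer cells, an isogenic pair either NRF2 wild-type or carrying a CRISPR gain-of-function, were cultured in DMEM with 10% FBS and treated in 384-well plates with library compounds at 5 concentrations across a 10,000-fold range. CellTiter-Glo viability was read on a Pherastar FS reader after 72 h and normalised to vehicle wells and 100-μM positive-control wells. Four-parameter logistic dose-response fits were applied. EC50 and drug sensitivity score, a normalised area under the curve, were taken from these fits.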

DLD1 NRF2-WT [2] = details: 72 h; CellTiter-Glo viability
Procedure, shortened: as §1

DLD1 NRF2-GOF [3] = test: TC50 cytotoxicity; higher = less toxic; details: 72 h; CellTox Green cytotoxicity
Procedure, shortened: (§2)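 TC50 and drug sensitivity score, a normalised area under the curve, were derived by logistic dose-response fits of cytotoxicity. The cells were an isogenic DLD1 colorectal cancer pair, NRF2 wild-type or CRISPR-edited, kept in DMEM with 10% FBS. Compounds were tested in 384-well plates at 5 concentrations across a 10,000-fold range for 72 h. Readings with CellTox Green on a Pherastar FS reader were normalised to vehicle wells and 100-μM positive-control wells.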

DLD1 NRF2-WT [4] = test: TC50 cytotoxicity; higher = less toxic; details: 72 h; CellTox Green cytotoxicity
Procedure, shortened: as §2

DLD1 NRF2-GOF [5] = test: drug sensitivity score (DSS) cytotoxicity (DSS score); higher = more toxic; extreme values may be limits of the assay; details: 72 h; CellTox Green cytotoxicity
Procedure, shortened: as §2

DLD1 NRF2-WT [6] = test: as above; details: 72 h; CellTox Green cytotoxicity
Procedure, shortened: as §2

DLD1 NRF2-GOF [7] = test: drug sensitivity score (DSS) viability (DSS score); higher = more sensitive; extreme values may be limits of the assay; details: 72 h; CellTiter-Glo viability
Procedure, shortened: as §1

DLD1 NRF2-WT [8] = test: as above; details: 72 h; CellTiter-Glo viability
Procedure, shortened: as §1

| Compound | EC50 viability (DLD1 NRF2-GOF [1]) | EC50 viability (DLD1 NRF2-WT [2]) | TC50 cytotoxicity (DLD1 NRF2-GOF [3]) | TC50 cytotoxicity (DLD1 NRF2-WT [4]) | drug sensitivity score (DLD1 NRF2-GOF [5]) | drug sensitivity score (DLD1 NRF2-WT [6]) | drug sensitivity score (DLD1 NRF2-GOF [7]) | drug sensitivity score (DLD1 NRF2-WT [8]) |
| --- | --- | --- | --- | --- | --- | --- | --- | --- |
| COc1cccc2c1C(=O)c1c(O)c3c(c(O)c1C2=O)C[C@@](O)(/C(CO)=N/NC(=O)CCCCCN1C(=O)C=CC1=O)C[C@@H]3O[C@H]1C[C@H](N)[C@H](O)[C@H](C)O1 [Aldoxorubicin] | 149 nM | 137 nM | > 1000 nM | > 1000 nM | 0 | 0 | 7.6 | 8.5 |
| Cc1cc2c(C(C)C)c(O)c(O)c(C=O)c2c(O)c1-c1c(C)cc2c(C(C)C)c(O)c(O)c(C=O)c2c1O [AT 101] | 6100 nM | 4410 nM | > 100000 nM | 30300 nM | 1 | 1.7 | 14.4 | 15.9 |
| COc1cccc2c1C(=O)c1c(O)c3c(c(O)c1C2=O)C[C@@](O)(C(C)=O)C[C@@H]3O[C@H]1C[C@H](N)[C@H](O)[C@H](C)O1 [Daunorubicin] | 165 nM | 156 nM |  |  |  |  | 7.2 | 8.3 |
| Cc1ccc(C(=O)N(CCCN)[C@@H](c2oc3cc(Cl)ccc3c(=O)c2Cc2ccccc2)C(C)C)cc1 | 3.1 nM | 2.8 nM | > 100 nM |  | 1.5 | 2.8 | 13.5 | 12.7 |
| Clc1ccc(Nc2nnc(Cc3ccncc3)c3ccccc23)cc1 [Vatalanib] | > 10000 nM | > 10000 nM |  |  |  |  | 0 | 0 |
| CC[C@]1(O)C[C@H]2CN(CCc3c([nH]c4ccccc34)[C@@](C(=O)OC)(c3cc4c(cc3OC)N(C=O)[C@H]3[C@@](O)(C(=O)OC)[C@H](OC(C)=O)[C@]5(CC)C=CCN6CC[C@]43[C@@H]65)C2)C1 [Vincristine] | 4.9 nM | 6.3 nM | > 1000 nM |  | 5.5 | 6.8 | 22.8 | 22.4 |
| CCc1c2c(nc3ccc(O)cc13)-c1cc3c(c(=O)n1C2)COC(=O)[C@]3(O)CC [SN-38] | 158 nM | 337 nM |  | 1670 nM | 2 | 2.3 | 17.5 | 12.7 |
| CCN(CC)CCOc1ccc(/C(=C(/Cl)c2ccccc2)c2ccccc2)cc1 [Clomifene] | 1840 nM | 3080 nM |  |  |  |  | 7.8 | 5.4 |
| N.N.[Cl][Pt][Cl] [Cisplatin] | 30600 nM | 27900 nM |  |  | 1.2 | 1.4 | 4.8 | 5.2 |
| Cc1c2oc3c(C)ccc(C(=O)N[C@@H]4C(=O)N[C@H](C(C)C)C(=O)N5CCC[C@H]5C(=O)N(C)CC(=O)N(C)[C@@H](C(C)C)C(=O)O[C@@H]4C)c3nc-2c(C(=O)N[C@@H]2C(=O)N[C@H](C(C)C)C(=O)N3CCC[C@H]3C(=O)N(C)CC(=O)N(C)[C@@H](C(C)C)C(=O)O[C@@H]2C)c(N)c1=O [Dactinomycin] | 1.3 nM | 6.7 nM | > 1000 nM |  | 0 | 1.4 | 31.3 | 24.8 |
| CC(=O)O[C@@]12CO[C@@H]1C[C@H](O)[C@@]1(C)C(=O)[C@H](O)C3=C(C)[C@@H](OC(=O)[C@H](O)[C@@H](NC(=O)OC(C)(C)C)c4ccccc4)C[C@@](O)([C@@H](OC(=O)c4ccccc4)[C@H]21)C3(C)C [Docetaxel] | 2.1 nM | 3.4 nM |  |  | 6.6 | 6.8 | 26.6 | 25.2 |
| CO[C@H]1C[C@@H]2CC[C@@H](C)[C@@](O)(O2)C(=O)C(=O)N2CCCC[C@H]2C(=O)O[C@H]([C@H](C)C[C@@H]2CC[C@@H](OC(=O)C(C)(CO)CO)[C@H](OC)C2)CC(=O)[C@H](C)/C=C(\C)[C@@H](O)[C@@H](OC)C(=O)[C@H](C)C[C@H](C)/C=C/C=C/C=C/1C [Temsirolimus] | > 100 nM | > 100 nM |  |  |  |  | 1.3 | 4.1 |

More lines, main results first:

| EC50 viability (DLD1 NRF2-GOF [1]) | EC50 viability (DLD1 NRF2-WT [2]) | Compound | TC50 cytotoxicity (DLD1 NRF2-GOF [3]) | TC50 cytotoxicity (DLD1 NRF2-WT [4]) | drug sensitivity score (DLD1 NRF2-GOF [5]) | drug sensitivity score (DLD1 NRF2-WT [6]) | drug sensitivity score (DLD1 NRF2-GOF [7]) | drug sensitivity score (DLD1 NRF2-WT [8]) |
| --- | --- | --- | --- | --- | --- | --- | --- | --- |
| 728 nM | 546 nM | Cc1cc(Nc2ncc(Cl)c(Nc3ccccc3S(=O)(=O)C(C)C)n2)c(OC(C)C)cc1C1CCNCC1 [Ceritinib] | > 2500 nM | > 2500 nM | 0 | 0 | 4.2 | 5.2 |
| 1710 nM | 2250 nM | CO[C@H]1CC[C@H](N2C(=O)CNc3ncc(-c4ccc(C(C)(C)O)nc4)nc32)CC1 [CC-223] | > 10000 nM | > 10000 nM | 0.1 | 0 | 5.3 | 4.6 |
| > 10000 nM | > 10000 nM | Cc1ccc(C(=O)Nc2cccc(C(F)(F)F)c2)cc1Nc1nc(-c2cccnc2)nc2c1cnn2C [NVP-BHG712] | > 10000 nM | > 10000 nM | 0 | 0 | 0.9 | 2.2 |
| 1590 nM | 1000 nM | CS(=O)(=O)N1CCN(Cc2cc3nc(-c4cccc5[nH]ncc45)nc(N4CCOCC4)c3s2)CC1 [Pictilisib] | > 10000 nM | > 10000 nM | 0 | 0.1 | 5.8 | 6.8 |
| 114 nM | 226 nM | Cc1ccc(C(=O)Nc2ccc(CN3CCN(C)CC3)c(C(F)(F)F)c2)cc1C#Cc1cnc2cccnn12 [Ponatinib] |  |  |  |  | 6 | 4 |
| 301 nM | 269 nM | COc1ccc(S(=O)(=O)Nc2cccnc2Nc2ccc(O)cc2)cc1 [ABT-751] | 1070 nM |  | 3.6 | 2.1 | 14.4 | 15.3 |
| 450 nM | 610 nM | CNC(=O)c1ccccc1Nc1nc(Nc2ccc3c(c2OC)CCC[C@H](N2CCN(CCO)CC2)C3)ncc1Cl |  | 1210 nM | 1.8 | 3 | 9.3 | 9.2 |
| 99.2 nM | 155 nM | Cc1cc(Nc2cc(N3CCN(C)CC3)nc(Sc3ccc(NC(=O)C4CC4)cc3)n2)n[nH]1 [Tozasertib] | 31.1 nM |  | 11.6 | 5.7 | 15.9 | 14.2 |
